Data from patent US12291516B2, “Substituted 1-amino-1H-imidazole-5-carboxamide as Bruton's tyrosine kinase inhibitors” (Henan Zhiwei Biomedicine Co., Ltd., priority 2019, dated 2025).

Target: BTK (Homo sapiens (Human), UniProt Q06187)
Experiment: In house ELISA kinase inhibition assay, BTK
Type: biochemical
Conditions: footnote b: from in house procedure (ELISA)
Procedure: BTK inhibition Assay and selectivity Assay The assay was conducted either a by a third party (Reaction Biology Corporation, PA, USA) or in house.
b) In House Procedure for BTK, BMX, EGFR and ITK:
Kinase inhibitory activities of compounds were evaluated using the Enzyme-linked immunosorbent assay (ELISA). The kinase enzyme of BTK, BMX, EGFR and ITK were purchased from Carna Bioscience (Kobe, Japan). A total of 10 ng/mL antiphosphotyrosine (PY713) antibody (abcam, Cambridge Science Park, UK) was precoated in 96-well ELISA plates. The kinase enzymes in each reaction well were set to BTK (101.25 ng/mL), BMX (90 ng/mL), EGFR (90 ng/mL) or ITK (120 ng/mL) and incubated with indicated drugs in 1× reaction buffer (50 mmol/L HEPES pH 7.4, 20 mmol/L MgCl2, 0.1 mmol/L MnCl2, 1 mmol/L DTT) containing 20 μmol/L (the final concentration of substrate in ITK reaction was 30 μmol/L) substrate (NH2-[…]-biotin) at 25° C. for 1 h. Then, a total of 3 μmol/L ATP was added and the reaction was continued for 2 h. The products of reaction were transferred into 96-well ELISA plates containing antibody and incubated at 25° C. for 30 min. After incubation, the wells were washed with PBS and then incubated with horseradish peroxidase (HRP)-conjugated streptavidin. The wells were visualized using 3,3′,5,5′-tetramethylbenzidine (TMB), and chromogenic reaction was ended with 2 mol/L H2SO4, the absorbance was read with a multimode plate reader (PerkinElmer, USA) at 450 nm. IC50 values and curve fits were obtained using Prism (GraphPad Software). (Table I-IV)

BTK, sequence (Q06187 whole entry): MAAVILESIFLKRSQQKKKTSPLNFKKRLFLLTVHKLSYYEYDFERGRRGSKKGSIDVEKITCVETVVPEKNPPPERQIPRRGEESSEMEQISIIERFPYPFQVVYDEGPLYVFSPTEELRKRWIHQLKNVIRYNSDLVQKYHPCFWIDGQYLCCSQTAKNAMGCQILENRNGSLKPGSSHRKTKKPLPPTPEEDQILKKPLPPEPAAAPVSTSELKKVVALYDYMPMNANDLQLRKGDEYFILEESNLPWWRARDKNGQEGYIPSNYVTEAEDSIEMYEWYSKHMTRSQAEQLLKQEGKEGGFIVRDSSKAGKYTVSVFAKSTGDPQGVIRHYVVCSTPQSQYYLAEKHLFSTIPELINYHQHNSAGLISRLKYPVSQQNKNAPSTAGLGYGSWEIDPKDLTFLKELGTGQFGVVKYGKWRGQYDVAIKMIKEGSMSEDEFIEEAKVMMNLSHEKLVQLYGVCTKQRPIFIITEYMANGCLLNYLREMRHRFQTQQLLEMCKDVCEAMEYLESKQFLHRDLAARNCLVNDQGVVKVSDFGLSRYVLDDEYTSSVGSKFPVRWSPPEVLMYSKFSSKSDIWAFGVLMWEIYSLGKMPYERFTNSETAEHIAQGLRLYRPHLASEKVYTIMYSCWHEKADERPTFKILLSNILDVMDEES

| Structure (SMILES) | IC50 |
| --- | --- |
| C=CC(=O)N1CCC[C@H]1c1nc(-c2ccc(C(=O)Nc3cc(C(F)(F)F)ccn3)cc2)c(C(N)=O)n1N [Example 42, (S)-2-(1-acryloylpyrrolidin-2-yl)-1-amino-4-(4-((4-(trifluoromethyl)pyridin-2-yl)carbamoyl)phenyl)-1H-imidazole-5-carboxamide] | 48 nM |
| C#CC(=O)N1CCCC[C@H]1c1nc(-c2ccc(C(=O)Nc3cc(C)ccn3)cc2)c(C(N)=O)n1N [Example 96, (S)-1-amino-4-(4-((4-methylpyridin-2-yl)carbamoyl)phenyl)-2-(1-propioloylpiperidin-2-yl)-1H-imidazole-5-carboxamide] | 19.2 nM |
| C=C(F)C(=O)N1CCCC[C@H]1c1nc(-c2ccc(C(=O)Nc3cc(C)ccn3)cc2)c(C(N)=O)n1N [Example 59, (S)-1-amino-2-(1-(2-fluoroacryloyl)piperidin-2-yl)-4-(4-((4-methylpyridin-2-yl)carbamoyl)phenyl)-1H-imidazole-5-carboxamide] | 1270 nM |
| C=CC(=O)N1CCCC[C@H]1c1nc(-c2ccc(C(=O)Nc3cc(C)ccn3)cc2)c(C(N)=O)n1N [Example 53, (S)-2-(1-acryloylpiperidin-2-yl)-1-amino-4-(4-((4-methylpyridin-2-yl)carbamoyl)phenyl)-1H-imidazole-5-carboxamide] | 18.1 nM |
| C=CC(=O)N1CCCC[C@H]1c1nc(-c2ccc(C(=O)Nc3cc(F)ccn3)cc2)c(C(N)=O)n1N [Example 106, (S)-2-(1-acryloylpiperidin-2-yl)-1-amino-4-(4-((4-fluoropyridin-2-yl)carbamoyl)phenyl)-1H-imidazole-5-carboxamide] | 15 nM |
| C=CC(=O)N1CCCC[C@H]1c1nc(-c2ccc(C(=O)Nc3cc(-c4ccccc4)ccn3)cc2)c(C(N)=O)n1N [Example 65, (S)-2-(1-acryloylpiperidin-2-yl)-1-amino-4-(4-((4-phenylpyridin-2-yl)carbamoyl)phenyl)-1H-imidazole-5-carboxamide] | 5.06 nM |
| CC#CC(=O)N1CCC[C@H]1c1nc(-c2ccc(C(=O)Nc3cc(C(F)(F)F)ccn3)cc2)c(C(N)=O)n1N [Example 43, (S)-1-amino-2-(1-(but-2-ynoyl)pyrrolidin-2-yl)-4-(4-((4-(trifluoro-methyl)pyridin-2-yl)carbamoyl)phenyl)-1H-imidazole-5-carboxamide] | 577 nM |
| C=CC(=O)N1CC2(CC(c3nc(-c4ccc(C(=O)Nc5cc(CC)ccn5)cc4)c(C(N)=O)n3N)C2)C1 [Example 95, 2-(2-acryloyl-2-azaspiro[3.3]heptan-6-yl)-1-amino-4-(4-((4-ethylpyridin-2-yl)carbamoyl)phenyl)-1H-imidazole-5-carboxamide] | 85.6 nM |
| CC#CC(=O)N1CCCC[C@H]1c1nc(-c2ccc(C(=O)Nc3cc(-c4ccc(Cl)cc4)ccn3)cc2)c(C(N)=O)n1N [Example 110, (S)-1-amino-2-(1-(but-2-ynoyl)piperidin-2-yl)-4-(4-((4-(4-chlorophenyl)pyridin-2-yl)carbamoyl)phenyl)-1H-imidazole-5-carboxamide] | 14.8 nM |
| C=CC(=O)N1CCC[C@H]1c1nc(-c2ccc(C(=O)Nc3cc(F)ccn3)cc2)c(C(N)=O)n1N [Example 40, (S)-2-(1-acryloylpyrrolidin-2-yl)-1-amino-4-(4-((4-fluoropyridin-2-yl)carbamoyl)phenyl)-1H-imidazole-5-carboxamide] | 70.6 nM |
| CC#CC(=O)N1CCC[C@H]1c1nc(-c2ccc(C(=O)Nc3ccc(C)cn3)cc2)c(C(N)=O)n1N [Example 27, (S)-1-amino-2-(1-(but-2-ynoyl)pyrrolidin-2-yl)-4-(4-((5-methylpyridin-2-yl)carbamoyl)phenyl)-1H-imidazole-5-carboxamide] | 2060 nM |
| Cc1ccnc(NC(=O)c2ccc(-c3nc([C@@H]4CCCCN4C(=O)/C=C/C(F)(F)F)n(N)c3C(N)=O)cc2)c1 [Example 60, (S,E)-1-amino-4-(4-((4-methylpyridin-2-yl)carbamoyl)phenyl)-2-(1-(4,4,4-trifluorobut-2-enoyl)piperidin-2-yl)-1H-imidazole-5-carboxamide] | 43.9 nM |
| CC#CC(=O)N1CCC[C@H]1c1nc(-c2ccc(C(=O)Nc3cc(CC)ccn3)cc2)c(C(N)=O)n1N [Example 38, (S)-1-amino-2-(1-(but-2-ynoyl)pyrrolidin-2-yl)-4-(4-((4-ethylpyridin-2-yl)carbamoyl)phenyl)-1H-imidazole-5-carboxamide] | 1040 nM |
| C=CC(=O)N1CCC[C@H]1c1nc(-c2ccc(C(=O)Nc3cc(C)ccn3)cc2)c(C(N)=O)n1NC [Example 45, (S)-2-(1-acryloylpyrrolidin-2-yl)-1-(methylamino)-4-(4-((4-methyl-pyridin-2-yl)carbamoyl)phenyl)-1H-imidazole-5-carboxamide] | 58.2 nM |
| CC#CC(=O)N1CCC(Cc2nc(-c3ccc(C(=O)Nc4ccccn4)cc3)c(C(N)=O)n2N)CC1 [Example 104, 1-amino-2-((1-(but-2-ynoyl)piperidin-4-yl)methyl)-4-(4-(pyridin-2-ylcarbamoyl)phenyl)-1H-imidazole-5-carboxamide] | 459 nM |
| C=C(F)C(=O)N1CCCC[C@H]1c1nc(-c2ccc(C(=O)Nc3cc(OC)ccn3)cc2)c(C(N)=O)n1N [Example 70, (S)-1-amino-2-(1-(2-fluoroacryloyl)piperidin-2-yl)-4-(4-((4-methoxy-pyridin-2-yl)carbamoyl)phenyl)-1H-imidazole-5-carboxamide] | 2890 nM |
| CC#CC(=O)N1CCCC[C@H]1c1nc(-c2ccc(C(=O)Nc3ccc(C)cn3)cc2)c(C(N)=O)n1N [Example 64, (S)-1-amino-2-(1-(but-2-ynoyl)piperidin-2-yl)-4-(4-((5-methylpyridin-2-yl)carbamoyl)phenyl)-1H-imidazole-5-carboxamide] | 129 nM |
| C=CC(=O)N1CCCC[C@H]1c1nc(-c2ccc(C(=O)Nc3cccnn3)cc2)c(C(N)=O)n1N [Example 101, (S)-2-(1-acryloylpiperidin-2-yl)-1-amino-4-(4-(pyridazin-3-ylcarbamoyl)phenyl)-1H-imidazole-5-carboxamide] | 211 nM |
| C=CC(=O)N1CCCC[C@H]1c1nc(-c2ccc(C(=O)Nc3cc(OC)ccn3)cc2)c(C(N)=O)n1N [Example 67, (S)-2-(1-acryloylpiperidin-2-yl)-1-amino-4-(4-((4-methoxypyridin-2-yl)carbamoyl)phenyl)-1H-imidazole-5-carboxamide] | 9.12 nM |
| CC#CC(=O)N1CCC[C@H]1c1nc(-c2ccc(C(=O)Nc3cc(F)ccn3)cc2)c(C(N)=O)n1N [Example 41, (S)-1-amino-2-(1-(but-2-ynoyl)pyrrolidin-2-yl)-4-(4-((4-fluoropyridin-2-yl)carbamoyl)phenyl)-1H-imidazole-5-carboxamide] | 1680 nM |
| CC#CC(=O)N1CCC[C@H]1c1nc(-c2ccc(C(=O)Nc3cc(OC)ccn3)cc2)c(C(N)=O)n1N [Example 34, (S)-1-amino-2-(1-(but-2-ynoyl)pyrrolidin-2-yl)-4-(4-((4-methoxy-pyridin-2-yl)carbamoyl)phenyl)-1H-imidazole-5-carboxamide] | 1670 nM |
| CC#CC(=O)N1CCCC[C@H]1c1nc(-c2ccc(C(=O)Nc3cc(C)ccn3)cc2)c(C(N)=O)n1N [Example 58, (S)-1-amino-2-(1-(but-2-ynoyl)piperidin-2-yl)-4-(4-((4-methylpyridin-2-yl)carbamoyl)phenyl)-1H-imidazole-5-carboxamide] | 58.1 nM |
| C=CC(=O)N1CCC[C@H]1c1nc(-c2ccc(C(=O)Nc3cc(OC)ccn3)cc2)c(C(N)=O)n1N [Example 28, (S)-2-(1-acryloylpyrrolidin-2-yl)-1-amino-4-(4-((4-methoxypyridin-2-yl)carbamoyl)phenyl)-1H-imidazole-5-carboxamide] | 72.9 nM |
| CC#CC(=O)N1CCCC[C@H]1c1nc(-c2ccc(C(=O)Nc3ccccn3)cc2)c(C(N)=O)n1N [Example 50, (S)-1-amino-2-(1-(but-2-ynoyl)piperidin-2-yl)-4-(4-(pyridin-2-ylcarbamoyl)phenyl)-1H-imidazole-5-carboxamide] | 100 nM |
| CC#CC(=O)N1CCCC[C@H]1c1nc(-c2ccc(C(=O)Nc3cc(C#N)ccn3)cc2)c(C(N)=O)n1N [Example 82, (S)-1-amino-2-(1-(but-2-ynoyl)piperidin-2-yl)-4-(4-((4-cyanopyridin-2-yl)carbamoyl)phenyl)-1H-imidazole-5-carboxamide] | 45.6 nM |
| C#CC(=O)N1CCCC[C@H]1c1nc(-c2ccc(C(=O)Nc3cc(CC)ccn3)cc2)c(C(N)=O)n1N [Example 100, (S)-1-amino-4-(4-((4-ethylpyridin-2-yl)carbamoyl)phenyl)-2-(1-propioloylpiperidin-2-yl)-1H-imidazole-5-carboxamide] | 9.99 nM |
| COc1ccnc(NC(=O)c2ccc(-c3nc([C@@H]4CCCCN4C(=O)/C=C/C(F)(F)F)n(N)c3C(N)=O)cc2)c1 [Example 69, (S,E)-1-amino-4-(4-((4-methoxypyridin-2-yl)carbamoyl)phenyl)-2-(1-(4,4,4-trifluorobut-2-enoyl)piperidin-2-yl)-1H-imidazole-5-carboxamide] | 70.7 nM |
